Key:
[1] = test system: TGFβ/SMAD Signaling Pathway SBE reporter cell line; experiment: TGFβ reporter assay, in vitro small molecule screening (luciferase); format: cell-based; conditions: TGFβ stimulation, luminescence
Protocol: TGFβ/SMAD Signaling Pathway SBE reporter cell line was obtained from BPS Bioscience. Cells were passed, expanded, and stored in liquid nitrogen as per the supplier's instructions with the exception that growth media is changed to DMEM-C with Geneticin (DMEM supplemented with 10% fetal bovine serum, 1×NEAA, 1 mM Pyruvate, 2 mM glutamine, 50 μg/mL penicillin, 50 U/mL streptomycin and 400 μg/mL of Geneticin). The assay media was MEM supplemented with 0.5% fetal bovine serum, 1×NEAA, 1 mM Pyruvate, 50 μg/mL penicillin and 50 U/mL streptomycin.
Test samples (at desired concentrations diluted in assay media) were added to a 96-well assay plate, 20 μL per well. Reporter cells were harvested from the tissue culture flasks by incubation in small quantity of PBS at 37° C. for two minutes after the media in the flask is removed and cells rinsed with PBS. Cells were counted and diluted in the assay media at approximately 0.5×10^6 cells/mL and then 80 μL/well of cells were added to the assay plate containing the 20 μL/well of test samples (or media only), and incubated for approximately 5-6 hours at 37° C. in a 5% CO2 humidified incubator. After that time, 15 μL of TGFβ diluted to 12 ng/mL in the assay media was added to the plate. Controls included TGFβ titration (from 50 to 0 ng/mL) without inhibitors, and media only (without cells, inhibitor or TGFβ). Plates were incubated at 37° C. in a 5% CO2 humidified incubator for 18 h. Luciferase substrate solution is subsequently added at 100 μL per well, incubated in the dark at room temperature for 15 min, and luminescence is measured using a luminometer. EC50 values and curve fits were obtained using Prism (GraphPad Software).

TGFBR2 = target: T1, TGFBR2 (Homo sapiens, UniProt P37173); experiment: TGFBR2 RBC assay (enzyme inhibition assay, Reaction Biology Corp.); format: biochemical
T1 construct: purchased Reaction Biology Corp
Protocol: Compounds of the disclosure were also assayed by Reaction Biology Corp. using the TGFBR2 RBC assay (enzyme inhibition assay). […] NT refers to not tested.

T1 sequence (P37173 23-567): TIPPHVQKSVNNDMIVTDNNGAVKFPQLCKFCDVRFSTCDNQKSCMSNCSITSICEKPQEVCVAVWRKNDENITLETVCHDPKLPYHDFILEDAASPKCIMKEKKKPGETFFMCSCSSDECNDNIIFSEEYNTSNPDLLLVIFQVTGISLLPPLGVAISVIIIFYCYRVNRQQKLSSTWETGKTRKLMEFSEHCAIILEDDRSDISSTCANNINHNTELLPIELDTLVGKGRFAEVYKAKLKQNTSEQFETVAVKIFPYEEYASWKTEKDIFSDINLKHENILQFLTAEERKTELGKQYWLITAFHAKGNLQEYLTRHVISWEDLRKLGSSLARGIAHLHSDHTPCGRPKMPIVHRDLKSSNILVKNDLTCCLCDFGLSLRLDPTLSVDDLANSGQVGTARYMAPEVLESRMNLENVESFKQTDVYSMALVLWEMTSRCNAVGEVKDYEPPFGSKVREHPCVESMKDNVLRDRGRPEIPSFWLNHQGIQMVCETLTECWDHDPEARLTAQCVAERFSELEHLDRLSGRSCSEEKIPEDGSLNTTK

| EC50 [1] | IC50 (TGFBR2) | SMILES |
| --- | --- | --- |
| > 1000 nM | > 1000 nM | Nc1ncc(-c2ccc(CCNC(=O)OCc3ccccc3)cc2)nc1C(=O)Nc1cnccc1-c1ccncn1 [Compound 49] |
| 100 to 1000 nM | < 50 nM | CC(C)(C)OC(=O)NC1CCN(c2ccc(-c3cnc(N)c(C(=O)Nc4cnccc4N4CCOCC4)n3)cc2)CC1 [Compound 280] |
| 100 to 1000 nM | < 50 nM | NCCc1ccc(-c2cnc(N)c(C(=O)Nc3cnccc3-c3cccnc3)n2)cc1 [Compound 127] |
| > 1000 nM | > 1000 nM | NCCc1ccc(-c2cnc(N)c(C(=O)Nc3cnccc3NCC(N)=O)n2)cc1 [Compound 104] |
| < 50 nM | < 50 nM | CN(C)c1ccc(-c2cnc(N)c(C(=O)Nc3cnccc3N3CCOCC3)n2)cc1 [Compound 259] |
| 100 to 1000 nM | 50 to 100 nM | NCCNC(=O)Cc1ccc(-c2cnc(N)c(C(=O)Nc3cnccc3N3CCOCC3)n2)cc1 [Compound 80] |
| 100 to 1000 nM | < 50 nM | Nc1ncc(-c2ccc(CCCNC(=O)OCc3ccccc3)cc2)nc1C(=O)Nc1cnccc1N1CCOCC1 [Compound 1.2] |
| 50 to 100 nM | < 50 nM | Nc1ncc(-c2ccc(OC3CNC3)cc2)nc1C(=O)Nc1cnccc1N1CCOCC1 [Compound 219] |
| 100 to 1000 nM | < 50 nM | CC(C)(C)OC(=O)N[C@H]1C[C@@H](Oc2ccc(-c3cnc(N)c(C(=O)Nc4cnccc4N4CCOCC4)n3)cc2)C1 [Compound 223] |
| 100 to 1000 nM | < 50 nM | Nc1ncc(-c2ccc(O[C@@H]3CCN(C(=O)OCc4ccccc4)C3)cc2)nc1C(=O)Nc1cnccc1N1CCOCC1 [Compound 162] |
| 100 to 1000 nM | < 50 nM | Nc1ncc(-c2ccc(CC(=O)N3CCNCC3)cc2)nc1C(=O)Nc1cnccc1N1CCOCC1 [Compound 92] |
| 50 to 100 nM | < 50 nM | CC(C)(C)OC(=O)N1CCN(Cc2ccc(-c3cnc(N)c(C(=O)Nc4cnccc4N4CCOCC4)n3)cc2)CC1 [Compound 89] |
| 100 to 1000 nM | 100 to 1000 nM | NCC1CN(c2ccncc2NC(=O)c2nc(-c3ccc(CCNC(=O)OCc4ccccc4)cc3)cnc2N)CCO1 (centres unmarked) [Compound 41] |
| < 50 nM | < 50 nM | Nc1ncc(-c2ccc(N3CCOCC3)cc2)nc1C(=O)Nc1cnccc1N1CCOCC1 [Compound 258] |
| 100 to 1000 nM | < 50 nM | CC(C)[C@H](NC(=O)OC(C)(C)C)C(=O)N1CCC[C@H]1C(=O)NCc1ccc(-c2cnc(N)c(C(=O)Nc3cnccc3N3CCOCC3)n2)cc1 [Compound 111] |
| 100 to 1000 nM | 100 to 1000 nM | CC(C)(C)OC(=O)NCC1CCc2cc(-c3cnc(N)c(C(=O)Nc4cnccc4N4CCOCC4)n3)ccc2N1 (centres unmarked) [Compound 243] |
| > 1000 nM | 100 to 1000 nM | Nc1ncc(-c2ccc(CCNC(=O)OCc3ccccc3)cc2)nc1C(=O)Nc1cnccc1-c1cc[nH]c(=O)c1 [Compound 39] |
| 100 to 1000 nM | < 50 nM | COc1cccc(-c2cnc(N)c(C(=O)Nc3cnccc3N3CCOCC3)n2)c1 [Compound 155] |
| 100 to 1000 nM | < 50 nM | CC(C)(C)OC(=O)NCCOc1cccc(-c2cnc(N)c(C(=O)Nc3cnccc3N3CCOCC3)n2)c1 [Compound 183] |
| 100 to 1000 nM | > 1000 nM | COc1cnccc1-c1ccncc1NC(=O)c1nc(-c2ccc(CCNC(=O)OCc3ccccc3)cc2)cnc1N [Compound 33] |
| 100 to 1000 nM | 50 to 100 nM | CC(C)(C)OC(=O)NC1CNc2ccc(-c3cnc(N)c(C(=O)Nc4cnccc4N4CCOCC4)n3)cc2C1 (centres unmarked) [Compound 238] |
| > 1000 nM | > 1000 nM | Nc1ncc(-c2ccc(CCNC(=O)OCc3ccccc3)cc2)nc1C(=O)Nc1cnccc1N1CC2(COC2)C1 [Compound 95] |
| 100 to 1000 nM | 100 to 1000 nM | Nc1ncc(-c2ccc(OC3CCN(C(=O)OCc4ccccc4)CC3)cc2)nc1C(=O)Nc1cnccc1N1CCOCC1 [Compound 166] |

| EC50 [1] | IC50 (TGFBR2) | SMILES |
| --- | --- | --- |
| 50 to 100 nM | 50 to 100 nM | Nc1ncc(-c2ccc(CN3CCNCC3)cc2)nc1C(=O)Nc1cnccc1N1CCOCC1 [Compound 91] |
| 100 to 1000 nM | < 50 nM | Nc1ncc(-c2ccc(O[C@H]3C[C@H](N)C3)cc2)nc1C(=O)Nc1cnccc1N1CCOCC1 [Compound 222] |
| 100 to 1000 nM | < 50 nM | Nc1ncc(-c2ccc(CCNC(=O)OCc3ccccc3)cc2)nc1C(=O)Nc1cnccc1-c1ccccn1 [Compound 25] |
| 100 to 1000 nM | 100 to 1000 nM | NCCc1ccc(-c2cnc(N)c(C(=O)Nc3cnccc3CN3CCCC3)n2)cc1 [Compound 93] |
| > 1000 nM | > 1000 nM | Nc1ncc(N2CCC3(CCNCC3)C2)nc1C(=O)Nc1cnccc1N1CCOCC1 [Compound 114] |
| 100 to 1000 nM | 50 to 100 nM | Nc1ncc(-c2ccccc2)nc1C(=O)Nc1cnccc1N1CCOCC1 [Compound 180] |
| > 1000 nM | > 1000 nM | CN(CC#N)c1ccncc1NC(=O)c1nc(-c2ccc(CCNC(=O)OCc3ccccc3)cc2)cnc1N [Compound 113] |
| 100 to 1000 nM | > 1000 nM | Nc1ncc(-c2c(Cl)cccc2Cl)nc1C(=O)Nc1cnccc1N1CCOCC1 [Compound 173] |
| 100 to 1000 nM | < 50 nM | NCCCOc1ccc(-c2cnc(N)c(C(=O)Nc3cnccc3N3CCOCC3)n2)cc1 [Compound 65] |
| 50 to 100 nM | < 50 nM | Nc1ncc(-c2ccc(N3CCC(N)CC3)cc2)nc1C(=O)Nc1cnccc1N1CCOCC1 [Compound 279] |
| > 1000 nM | 50 to 100 nM | COC(=O)c1cc(-c2cnc(NC(=O)OC(C)(C)C)c(C(=O)Nc3cnccc3N3CCOCC3)n2)ccc1OCCCNC(=O)OC(C)(C)C [Compound 242] |
| > 1000 nM | < 50 nM | CC(C)c1nccn1-c1ccncc1NC(=O)c1nc(-c2ccc(CCNC(=O)OCc3ccccc3)cc2)cnc1N [Compound 143] |
| > 1000 nM | > 1000 nM | CC(CN)Oc1ccc(-c2cnc(N)c(C(=O)Nc3cnccc3N3CCCOCCC3)n2)cc1 (centres unmarked) [Compound 261] |
| 100 to 1000 nM | < 50 nM | CC(C)c1nccn1-c1ccncc1NC(=O)c1nc(-c2ccc(CCN)cc2)cnc1N [Compound 142] |
| 50 to 100 nM | 50 to 100 nM | Nc1ncc(-c2ccc3c(c2)CNCC3)nc1C(=O)Nc1cnccc1N1CCOCC1 [Compound 67] |
| 100 to 1000 nM | < 50 nM | Nc1ncc(-c2ccc(CCNC(=O)OCc3ccccc3)cc2)nc1C(=O)Nc1cnccc1-c1ccc2c(c1)OCO2 [Compound 26] |
| 100 to 1000 nM | < 50 nM | COC(=O)[C@H](N)Cc1ccc(-c2cnc(N)c(C(=O)Nc3cnccc3N3CCOCC3)n2)cc1 [Compound 195] |
| 100 to 1000 nM | < 50 nM | CC(C)(C)OC(=O)N[C@H](Cc1ccc(-c2cnc(N)c(C(=O)Nc3cnccc3N3CCOCC3)n2)cc1)C(=O)O [Compound 196] |
| 100 to 1000 nM | < 50 nM | Nc1ncc(-c2ccc(C(=O)NCCNC(=O)OCc3ccccc3)cc2)nc1C(=O)Nc1cnccc1N1CCOCC1 [Compound 76] |
| > 1000 nM | < 50 nM | Cc1nccn1-c1ccncc1NC(=O)c1nc(-c2ccc(CCN)cc2)cnc1N [Compound 138] |
| > 1000 nM | > 1000 nM | COC1CN(c2ccncc2NC(=O)c2nc(-c3ccc(CCNC(=O)OCc4ccccc4)cc3)cnc2N)C1 [Compound 96] |
| > 1000 nM | < 50 nM | Nc1ncc(-c2ccc(OCC[C@H](NC(=O)OCc3ccccc3)C(=O)O)cc2)nc1C(=O)Nc1cnccc1N1CCOCC1 [Compound 265] |
| 100 to 1000 nM | < 50 nM | Nc1ncc(-c2ccc3c(c2)C(O)CCC3)nc1C(=O)Nc1cnccc1N1CCOCC1 (centres unmarked) [Compound 251] |
